Measured values as given in ChEMBL document CHEMBL4311958, “Targeting multiple G-quadruplex-forming DNA sequences: Design, biophysical and biological evaluations of indolo-naphthyridine scaffold derivatives” (Eur J Med Chem, 2019).
Activity calls are given as the source filed them. The calls are words filed in the database; no cut-off is given here.

Key:
[1] = test system: dsDNA; assay: Stabilization of 5'-DABCYL labeled double stranded DNA (unknown origin) assessed as change in melting temperature at 5 uM preincubated for 5 mins and measured after 5 mins by FRET assay; format: nucleic-acid assay
[2] = test system: Quadruplex DNA; assay: Stabilization of 5'-DABCYL/3'-FAM labeled BCL2 G-quadruplex oligonucleotide (unknown origin) assessed as change in melting temperature at 5 uM preincubated for 5 mins and measured after 5 mins by FRET assay; format: nucleic-acid assay
[3] = test system: Quadruplex DNA; assay: Stabilization of 5'-DABCYL/3'-FAM labeled HTS G-quadruplex oligonucleotide (unknown origin) assessed as change in melting temperature at 5 uM preincubated for 5 mins and measured after 5 mins by FRET assay; format: nucleic-acid assay
[4] = test system: Quadruplex DNA; assay: Stabilization of 5'-DABCYL/3'-FAM labeled cKIT1 G-quadruplex oligonucleotide (unknown origin) assessed as change in melting temperature at 5 uM preincubated for 5 mins and measured after 5 mins by FRET assay; format: nucleic-acid assay
[5] = test system: Quadruplex DNA; assay: Stabilization of 5'-DABCYL/3'-FAM labeled KRAS G-quadruplex oligonucleotide (unknown origin) assessed as change in melting temperature at 5 uM preincubated for 5 mins and measured after 5 mins by FRET assay; format: nucleic-acid assay
[6] = test system: Quadruplex DNA; assay: Stabilization of 5'-DABCYL/3'-FAM labeled cMYC G-quadruplex oligonucleotide (unknown origin) assessed as change in melting temperature at 5 uM preincubated for 5 mins and measured after 5 mins by FRET assay; format: nucleic-acid assay
[7] = test system: HT-29; assay: Cytotoxicity against human HT-29 cells assessed as cell viability at 20 uM incubated for 48 hrs by trypan blue assay relative to control; format: functional; settings: HT-29, 48 h, read-out: Activity
[8] = test system: A549; assay: Cytotoxicity against human A549 cells assessed as cell viability at 20 uM incubated for 48 hrs by trypan blue assay relative to control; format: functional; settings: A549, 48 h, read-out: Activity
[9] = test system: Quadruplex DNA; assay: Competitive binding affinity to 5'-DABCYL/3'-FAM labeled cKIT1 G-quadruplex oligonucleotide (unknown origin) at 5 uM preincubated for 5 mins and measured after 5 mins in presence of ds DNA by FRET assay; format: nucleic-acid assay
[10] = molecular target: Quadruplex DNA; assay: Binding affinity to 5'-biotin-TEG labeled cKIT1 G-quadruplex oligonucleotide (unknown origin) by SPR analysis; format: nucleic-acid assay
[11] = test system: Quadruplex DNA; assay: Binding affinity to 5'-DABCYL/3'-FAM labeled cKIT1 G-quadruplex oligonucleotide (unknown origin) assessed as conformational change at test compound to DNA ratio of 4:1 measured for 10 mins by circular dichroism analysis; format: nucleic-acid assay
[12] = test system: Quadruplex DNA; assay: Binding affinity to 5'-DABCYL/3'-FAM labeled cKIT1 G-quadruplex oligonucleotide (unknown origin) assessed as melting temperature at test compound to DNA ratio of 4:1 measured for 10 mins by circular dichroism analysis; format: nucleic-acid assay
[13] = test system: A2780; assay: Cytotoxicity against human A2780 cells assessed as cell viability at 20 uM incubated for 48 hrs by trypan blue assay relative to control; format: functional; settings: A2780, 48 h, read-out: Activity
[14] = molecular target: Quadruplex DNA; assay: Binding affinity to 5'-cy5 labeled cKIT1 G-quadruplex oligonucleotide (unknown origin) by microscale thermophoresis analysis; format: nucleic-acid assay

SMILES | deltaTm [1] | deltaTm [2] | ΔTm [3] [°C] | deltaTm [4] | deltaTm [5] | deltaTm [6] | ΔTm [2] [°C] | ΔTm [4] [°C] | ΔTm [6] [°C] | ΔTm [1] [°C] | Activity [9] | Kd [10] [nM] | Activity [11] | ΔTm [5] [°C] | Tm [12] [°C] | Kd [14] [nM] | viability at 20 µM [7] [%] | viability at 20 µM [8] [%] | viability at 20 µM [13] [%]
C=C(C)Cc1c(OCC(=O)NCC2CCCN2CC)ccc2c1c1ccnc3c4ccccc4c(=O)n2c13 (centres undefined) | inactive | – | 1.7 | – | inactive | – | 0 | 1.6 | 3.4 | – | – | – | – | – | – | – | – | – | –
COc1ccc2c(c1OC)c(=O)n1c3ccc(OCC(=O)NCCCN4CCOCC4)cc3c3ccnc2c31 | – | – | 4.5 | – | – | – | 3.4 | 6.3 | 4.9 | 0.1 | inactive | 510 | Active | 0.8 | 59.9 | 300 | 85 | 69 | 94
CN(C)Cc1c(O)ccc2c1c1ccnc3c4ccccc4c(=O)n2c13 | – | – | 3.3 | – | inactive | – | 1.1 | 5 | 3.8 | 0.1 | – | – | – | – | – | – | – | – | –

Further lines, with some results ahead:

deltaTm [1] | deltaTm [2] | ΔTm [3] [°C] | deltaTm [4] | deltaTm [5] | deltaTm [6] | ΔTm [2] [°C] | ΔTm [4] [°C] | ΔTm [6] [°C] | ΔTm [1] [°C] | Activity [9] | Kd [10] [nM] | Activity [11] | ΔTm [5] [°C] | Tm [12] [°C] | Kd [14] [nM] | SMILES | viability at 20 µM [7] [%] | viability at 20 µM [8] [%] | viability at 20 µM [13] [%]
inactive | inactive | 0.5 | inactive | inactive | inactive | – | – | – | – | – | – | – | – | – | – | COc1ccc2c(c1OC)c(=O)n1c3ccccc3c3cc(C(=O)N4CCN(Cc5ccccc5)CC4)nc2c31 | – | – | –
inactive | – | 0.6 | inactive | inactive | – | 2.3 | – | 0.8 | – | – | – | – | – | – | – | COc1ccc2c(c1OC)c(=O)n1c3ccccc3c3cc(C(=O)N4CCN(CCO)CC4)nc2c31 | – | – | –
– | – | 1.5 | inactive | inactive | – | 2.3 | – | 1.2 | 0.6 | – | – | – | – | – | – | CCN1CCN(C(=O)c2cc3c4ccccc4n4c(=O)c5ccccc5c(n2)c34)CC1 | – | – | –
